Structures are written as SMILES.

Data set [1] relates to Setaria faberi (SETFA). Kind of data set: Pre-emergence herbicidal activity, glasshouse pot test. As to conditions: Setaria faberi, 480 h, rate 500 g/ha, evaluated after 20 days, read-out: Pre-emergence activity, SETFA (100=total damage to plant; 0=no damage to plant). Format: in vivo. The gist of the method: (§1)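 One day after sowing in sterilised soil, pots receive an aqueous spray made from the compound dissolved in acetone and a formulation of emulsifier, N-methylpyrrolidone, glycol ether and X-77 wetter. Injury is assessed 20 days later against untreated expectations, scored from 0 (no damage) to 100.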

For data set [2], the system named is Avena fatua (AVEFA). The description is as above. Format: in vivo. As to conditions: Avena fatua, 480 h, rate 500 g/ha, evaluated after 20 days, read-out: Pre-emergence activity, AVEFA (100=total damage to plant; 0=no damage to plant). The gist of the method: as §1
Data set [3] deals with Alopecurus myosuroides (ALOMY). The description is as above. Format: in vivo. As to conditions: Alopecurus myosuroides, 480 h, rate 500 g/ha, evaluated after 20 days, read-out: Pre-emergence activity, ALOMY (100=total damage to plant; 0=no damage to plant). The gist of the method:
as §1

Data set [4] has as its system Lolium perenne (LOLPE). The data set is described as above. As to conditions: Lolium perenne, 480 h, rate 500 g/ha, evaluated after 20 days, read-out: Pre-emergence activity, LOLPE (100=total damage to plant; 0=no damage to plant). Format: in vivo. The gist of the method: as §1
For data set [5], the system named is Echinochloa crus-galli (ECHCG). The description is as above. Format: in vivo. As to conditions: Echinochloa crus-galli, 480 h, rate 500 g/ha, evaluated after 20 days, read-out: Pre-emergence activity, ECHCG (100=total damage to plant; 0=no damage to plant). The gist of the method:
as §1

In data set [6] the test system is Digitaria sanguinalis (DIGSA). The data set is described as above. Format: in vivo. As to conditions: Digitaria sanguinalis, 480 h, rate 500 g/ha, evaluated after 20 days, read-out: Pre-emergence activity, DIGSA (100=total damage to plant; 0=no damage to plant). The gist of the method:
as §1

Data set [7] concerns Setaria faberi (SETFA). As to the kind of experiment: Post-emergence herbicidal activity, glasshouse pot test. The conditions noted are these: Setaria faberi, rate 500 g/ha, evaluated after 14 or 15 days, read-out: Post-emergence activity, SETFA (100=total damage to plant; 0=no damage to plant). Format: in vivo. The gist of the method: (§2)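 Test species were grown in sterilised soil for 10 days, sprayed post-emergence with the aqueous formulated compound, and kept in a greenhouse under optimum conditions. Herbicidal effect was assessed after 14 or 15 days as percent damage, where 0 means no effect.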

Data set [8] relates to Avena fatua (AVEFA). The description is as above. Format: in vivo. The conditions noted are these: Avena fatua, rate 500 g/ha, evaluated after 14 or 15 days, read-out: Post-emergence activity, AVEFA (100=total damage to plant; 0=no damage to plant). The gist of the method: as §2
Data set [9] has as its system Alopecurus myosuroides (ALOMY). The data set is described as above. Format: in vivo. The conditions noted are these: Alopecurus myosuroides, rate 500 g/ha, evaluated after 14 or 15 days, read-out: Post-emergence activity, ALOMY (100=total damage to plant; 0=no damage to plant). The gist of the method: as §2
Data set [10] has as its system Lolium perenne (LOLPE). The data set is described as above. Format: in vivo. As to conditions: Lolium perenne, rate 500 g/ha, evaluated after 14 or 15 days, read-out: Post-emergence activity, LOLPE (100=total damage to plant; 0=no damage to plant). The gist of the method: as §2
The subject of data set [11] is Echinochloa crus-galli (ECHCG). The description is as above. Format: in vivo. As to conditions: Echinochloa crus-galli, rate 500 g/ha, evaluated after 14 or 15 days, read-out: Post-emergence activity, ECHCG (100=total damage to plant; 0=no damage to plant). The gist of the method: as §2
Data set [12] deals with Digitaria sanguinalis (DIGSA). The data set is described as above. Format: in vivo. As to conditions: Digitaria sanguinalis, rate 500 g/ha, evaluated after 14 or 15 days, read-out: Post-emergence activity, DIGSA (100=total damage to plant; 0=no damage to plant). The gist of the method: as §2

As for `CCc1ccc(-c2ccc(Cl)cc2)cc1C1=C(O)CC2(CCOCC2)CC1=O` [Compound T4, 9-(5-(4′-chlorophenyl)-2-ethylphenyl)-3-oxaspiro[5.5]undecane-8,10-dione], the melting point lay in the range of 94.5 to 97.5 °C. Further, in the data set on Setaria faberi (SETFA) [1], the pest or weed control at 500 g/ha was 100%. Also, in the data set on Avena fatua (AVEFA) [2], the pest or weed control at 500 g/ha was 70%. The pest or weed control at 500 g/ha in data set [3] came to 70%. For the same molecule, in the data set with Lolium perenne (LOLPE) [4], the pest or weed control at 500 g/ha worked out at 70%. For the same molecule, the pest or weed control at 500 g/ha in data set [5] was found to be 100%. Moreover, the pest or weed control at 500 g/ha in [6] amounted to 100%. Moreover, in the data set with Setaria faberi (SETFA) [7], the pest or weed control at 500 g/ha was determined as 90%. Moreover, the pest or weed control at 500 g/ha with Avena fatua (AVEFA) [8] stood at 80%. Also, in [9], the pest or weed control at 500 g/ha was 90%. Also, in the data set with Lolium perenne (LOLPE) [10], the pest or weed control at 500 g/ha stood at 70%. In [11], the pest or weed control at 500 g/ha turned out to be 100%. Moreover, in [12], the pest or weed control at 500 g/ha came to 100%.

In turn, `CCc1cc(C)cc(CC)c1C1=C(O)CC(CC(C)[S+]([O-])CC)CC1=O` (centres unmarked) [Compound T29, 2-(2,6-diethyl-4-methylphenyl)-5-[2-(ethylsulfinyl)propyl]cyclohexane-1,3-dione] came in with a melting point of 58 to 61 °C. Also, the pest or weed control at 500 g/ha with Setaria faberi (SETFA) [1] stood at 100%. Besides, the pest or weed control at 500 g/ha in the data set with Avena fatua (AVEFA) [2] came out at 90%. The pest or weed control at 500 g/ha in data set [3] turned out to be 100%. The pest or weed control at 500 g/ha in the data set with Lolium perenne (LOLPE) [4] is 100%. Moreover, the pest or weed control at 500 g/ha in data set [5] was 100%. In addition, the pest or weed control at 500 g/ha in data set [6] was 100%. Besides, the pest or weed control at 500 g/ha with Setaria faberi (SETFA) [7] was 90%. The pest or weed control at 500 g/ha in the data set with Avena fatua (AVEFA) [8] is 100%. Besides, the pest or weed control at 500 g/ha in [9] is 90%. The pest or weed control at 500 g/ha in the data set with Lolium perenne (LOLPE) [10] turned out to be 90%. In addition, the pest or weed control at 500 g/ha in data set [11] stood at 100%. Further, in [12], the pest or weed control at 500 g/ha was 100%.

The values above are taken from patent US8084649B2, “Herbicides” (Syngenta Crop Protection, inc., priority 2007, dated 2011).
